Experiments:
[1] = test system: IRF2 mRNA in F221 murine sarcoma cells; assay: IRF2 mRNA levels by qPCR in drug-treated F221 cells; format: cell-based; conditions: Vorinostat 1 uM or 5 uM, Decitabine 5 uM, 24 hrs, vs DMSO control
Experimental: (§1) FIGS. 13A-B. (A) IRF2 & TAP2 mRNA levels, and MHC I surface protein levels in […] murine sarcoma cells treated with Vorinostat (1 uM or 5 uM), Decitabine (5 uM), or control diluent (DMSO) with no drug; (B) surface expression of MHC I on […] MCA-sarcoma cells treated with Vorinostat (5 uM) and/or Decitabine (5 uM). RNA was extracted from cell lines using the RNeasy kit (Qiagen) or from formalin-fixed paraffin-embedded non-small cell lung cancers using the RNeasy FFPE kit (Qiagen) and reverse transcribed to cDNA using EcoDry pre-mix random hexamers (Clontech). 50 ng cDNA were used per well (done in triplicate) with indicated TaqMan probes (Applied Biosystems), according to the manufacturer's instructions. The TaqMan probes used were as follows: We tested two epigenetic modifiers on an IRF2low, MHC I low murine cancer cell line ([…] MCA-sarcoma). […] murine sarcoma cells were treated with Vorinostat (1 uM or 5 uM), Decitabine (5 uM), or control diluent (DMSO) with no drug for 24 hrs and then assayed for IRF2 and TAP2 mRNA levels by qPCR and MHC I protein levels by flow cytometry.

[2] = test system: TAP2 mRNA in F221 murine sarcoma cells; assay: TAP2 mRNA levels by qPCR in drug-treated F221 cells; format: cell-based; conditions: Vorinostat 1 uM or 5 uM, Decitabine 5 uM, 24 hrs, vs DMSO control
Experimental: as §1

[3] = test system: surface MHC I (H-2Kb) on F221 MCA-sarcoma cells; assay: Surface MHC I protein levels by flow cytometry in drug-treated F221 cells; format: cell-based; conditions: F221 murine sarcoma cells; Vorinostat 1 uM or 5 uM, Decitabine 5 uM; 24 hrs; vs DMSO control
Text: Where indicated, mouse cells were blocked with 2.4G2 and stained for surface MHC class I levels with anti-K^b-APC (eBioscience, AF6-88.5.5.3), MHC class II levels with anti-I^A/I^E-PECy7 (BioLegend, M5/114.15.2), PD-L1 levels with anti-PD-L1-PE (BioLegend, 10F.9G2), or with isotype controls (eBioscience mouse IgG2a-APC eBM2a, eBioscience rat IgG2b κ-PE eB149) at 1:200 dilutions.
We tested two epigenetic modifiers on an IRF2low, MHC I low murine cancer cell line (F221 MCA-sarcoma). F221 murine sarcoma cells were treated with Vorinostat (1 uM or 5 uM), Decitabine (5 uM), or control diluent (DMSO) with no drug for 24 hrs and then assayed for IRF2 and TAP2 mRNA levels by qPCR and MHC I protein levels by flow cytometry.
In addition, F221 MCA-sarcoma cells were treated with a combination of Vorinostat (5 uM) and/or Decitabine (5 uM) for 24 hrs and then surface expression of MEW I molecules were quantified by flow cytometry.

[4] = test system: surface MHC-I on IRF2-KO DC3.2; assay: Surface MHC-I on IRF2-KO DC3.2 after interferon stimulation (flow cytometry); format: cell-based, mouse
Experimental: (§2) FIGS. 5A-E. IRF2-IRF1 balance. (A) Normalized MFI of surface MHC I and PD-L1 levels on the indicated single or double (IRF1+IRF2, double knock out (DKO)) DC3.2 knockout lines after overnight incubation with either media alone or 2 ng/mL IFNγ; bars represent mean+SEM (N≥3); (B) Western blot for IRF1 and IRF2 (and β-actin as loading control) in the DC3.2 knockout lines in the absence or presence of 2 ng/mL IFNγ for the durations indicated; (C) ChIP-qPCR of DC3.2 WT cells stimulated with ±2 ng/mL IFNγ for 2 hrs for TAP2 (top), ERAP1 (middle), or PD-L1 (bottom) DNA with rabbit anti-IRF2 IgG, rabbit anti-IRF1 IgG, or normal rabbit IgG (control). Bars represent mean +SEM fold enrichment (2^^-ΔCt) over the normal rabbit IgG control IP (N=2); (d, e) Heatmap of genes differentially expressed between the DC knockout lines (D) at baseline or (E) after stimulation with ±2 ng/mL IFNγ for 2 hrs. For clarity, only a few genes are shown. Statistical analysis by two-tailed ratio paired t-tests. *p<0.05, **p<0.01, ***p<0.001, ****p<0.0001, ns=not significant.
FIGS. 10A-B. (A) Normalized MFI of surface MHC I and PD-L1 levels on DC3.2 stable knockout lines after overnight incubation with 5,000 U/mL IFNα; bars represent mean+SEM (N=3). Statistical analysis by two-tailed ratio paired t-tests. […]

[5] = test system: surface MHC-I on A549 cells; assay: Surface MHC-I on IFNγ-stimulated A549 (flow cytometry); format: cell-based, human; conditions: overnight IFNγ stimulation
Text: (§3) FIGS. 6A-J. IRF2 and cancer. (A) Differential IRF2 expression in tumor and normal tissue from patients with the indicated cancer types (TCGA abbreviations), as queried from TIMER^29; (B) IRF2 mRNA expression in patient NSCLC specimens scored as PD-L1 low (1-50%) or high (>50%) by immunohistochemistry. IRF2 mRNA expression was normalized to GAPDH mRNA expression in each lung specimen and then IRF2 expression across specimens was compared by calculating fold changes over the lowest IRF2-expressing specimen, which was set equal to 1. Statistical analysis by Mann-Whitney U test, **p<0.01; (C) TAP2 (top) and ERAP1 (bottom) mRNA correlations with IRF2 mRNA in NSCLC specimens. Linear regression models shown with R^2 for goodness of fit. (D-E) Geometric MFI of surface MHC I (left) and PD-L1 (right) on (D) unstimulated or (E) overnight IFNγ-stimulated A549 lines knocked out for IRF2 (“IRF2 KO”) or control (“WT”) or overexpressing IRF2 or empty vector (EV) as control. Bars represent mean +SEM (N=3). Statistical analysis by two-tailed ratio paired t-tests. *p<0.05, **p<0.01, ***p<0.001; (F) Geometric MFI of surface MHC-I and PD-L1 on unstimulated or IFNγ-stimulated human breast carcinoma (BT20 and MCF7) lines knocked out for IRF2 (“IRF2 KO”) or control (“WT”). […] After 4 hours, specific killing was quantified by flow cytometry. […]

[6] = test system: surface PD-L1 on A549 cells; assay: Surface PD-L1 on IFNγ-stimulated A549 (flow cytometry); format: cell-based, human; conditions: overnight IFNγ stimulation
Text: as §3

[7] = test system: PD-L1 promoter in DC3.2 WT cells; assay: ChIP-qPCR of IRF1/IRF2 binding to the PD-L1 promoter after IFNγ stimulation; format: cell-based, mouse; conditions: 2 ng/mL IFNγ for 2 hrs
Experimental: as §2
It is well-established that IRF1 can promote IFNγ-inducible activation of PD-L1^27,28. […]
ChIP procedure generally followed the Thermo Fisher ChIP protocol. […] Chromatin was sheared by sonication for 20 min and fragment size (˜300 bp) was determined by gel electrophoresis. […]

Question: What does the source list for O=C(CCCCCCC(=O)Nc1ccccc1)NO [Vorinostat, Suberoylanilide hydroxamic acid]?
Answer: expression of IRF2 mRNA [1]: increased; mRNA for IRF2's target gene, TAP2 [2]: increased; surface MHC I (H-2Kb) protein levels [3]: increased

Question: IFNα was tested. Which “surface MHC-I expression in the IRF2-KO DC3.2” value ([4]; overnight incubation with 5,000 U/mL IFNα) did it give?
Answer: Its value is “restored”.

Question: Which results are given for “IFNγ: interferon gamma used to stimulate cells (mouse IFNγ 2 ng/mL for DC3.2)”?
Answer: surface MHC-I expression [5]: augmented; surface MHC-I expression in the IRF2-KO DC3.2 ([4]; overnight incubation with 2 ng/mL IFNγ): restored; surface PD-L1 expression [6]: augmented; IRF1 binding to the PD-L1 promoter [7]: increased IRF1 binding; IRF2 binding to the PD-L1 promoter [7]: decreased IRF2 binding

— US20220299513A1, “IRF2 AS A PROGNOSTIC BIOMARKER AND TARGET FOR AUGMENTING IMMUNOTHERAPY” (University of Massachusetts, priority 2019, published 2022)
